Measurements taken from patent US12139492B2 (Endotarget Inc., priority 2021, dated 2024).

Key:
Assay type in all cases: cell-based
Mino cells = assay: Antiproliferative effect, MTS cell viability assay, Mino cells; conditions: Homo sapiens, MINO, Mino mantle cell lymphoma cells; read-out: IC50 (anti-proliferation) Mino cells
Method in brief: (§1)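 Absorbance at 490 nm of formazan, formed by metabolically active cells from MTS tetrazolium, served as the viability measure after a 72 h treatment across a 0.001–10 μM concentration series plus untreated control.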

JeKo-1 cells = assay: Antiproliferative effect, MTS cell viability assay, JeKo-1 cells; conditions: Homo sapiens; JeKo-1 mantle cell lymphoma cells; read-out: IC50 (anti-proliferation) JeKO-1 cells
Method in brief: as §1

BTK = BTK (Homo sapiens, UniProt Q06187); assay: BTK degradation, DC50 and Dmax of Table 1 (cell line not given); set-up: endogenous in cells; conditions: for DC50: concentration giving 50% reduction of BTK expression level
BTK, sequence (Q06187 whole entry): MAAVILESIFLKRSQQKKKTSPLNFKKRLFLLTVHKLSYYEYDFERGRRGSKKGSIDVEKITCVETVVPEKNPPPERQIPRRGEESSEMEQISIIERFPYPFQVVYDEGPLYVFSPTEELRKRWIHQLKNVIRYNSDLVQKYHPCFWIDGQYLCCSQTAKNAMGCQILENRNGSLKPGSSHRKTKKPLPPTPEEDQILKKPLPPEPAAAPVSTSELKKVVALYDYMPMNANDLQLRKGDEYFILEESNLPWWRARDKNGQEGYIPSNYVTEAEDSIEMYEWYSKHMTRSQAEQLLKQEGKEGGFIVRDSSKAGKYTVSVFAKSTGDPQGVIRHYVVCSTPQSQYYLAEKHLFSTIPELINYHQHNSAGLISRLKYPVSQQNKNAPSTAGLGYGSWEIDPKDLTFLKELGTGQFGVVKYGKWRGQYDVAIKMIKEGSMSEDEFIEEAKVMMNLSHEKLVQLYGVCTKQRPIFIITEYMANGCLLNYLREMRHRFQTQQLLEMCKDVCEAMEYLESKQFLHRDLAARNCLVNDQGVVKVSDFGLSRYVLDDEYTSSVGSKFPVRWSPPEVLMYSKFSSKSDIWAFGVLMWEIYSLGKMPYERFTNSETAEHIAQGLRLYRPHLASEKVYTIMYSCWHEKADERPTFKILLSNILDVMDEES

Row | Dmax (BTK) [%] | DC50 (BTK) [µM] | Compound | IC50 (Mino cells) [µM] | IC50 (JeKo-1 cells) [µM]
1 | > 90 | < 0.01 | Nc1ncnc2c1c(-c1ccc(Oc3ccccc3)cc1)nn2[C@@H]1CCCN(C(=O)N2CCC(CN3CCN(c4ccc5c(c4)CN(C4CCC(=O)NC4=O)C5=O)CC3)CC2)C1 (stereo partly drawn) [Compound 56, 3-(5-(4-((1-((R)-3-(4-amino-3-(4-phenoxyphenyl)-1H-pyrazolo[3,4-d]pyrimidin-1-yl)piperidine-1-carbonyl)piperidin-4-yl)methyl)piperazin-1-yl)-1-oxoisoindolin-2-yl)piperidine-2,6-dione] | < 1 | < 1
2 | > 90 | 0.01 to 0.05 | Nc1ncnc2c1c(-c1ccc(Oc3ccccc3)cc1)nn2[C@@H]1CCCN(C(=O)N2CCN(CC3CCN(c4ccc5c(c4)C(=O)N(C4CCC(=O)NC4=O)C5=O)CC3)CC2)C1 (stereo partly drawn) [Compound 57, 5-(4-((4-((R)-3-(4-amino-3-(4-phenoxyphenyl)-1H-pyrazolo[3,4-d]pyrimidin-1-yl)piperidine-1-carbonyl)piperazin-1-yl)methyl)piperidin-1-yl)-2-(2,6-dioxopiperidin-3-yl)isoindoline-1,3-dione] | 1 to 10 | 1 to 10
3 | > 90 | 0.01 to 0.05 | Nc1ncnc2c1c(-c1ccc(Oc3ccccc3)cc1)nn2[C@@H]1CCCN(C(=O)N2CCN(CC3CCN(c4ccc5c(c4)CN(C4CCC(=O)NC4=O)C5=O)CC3)CC2)C1 (stereo partly drawn) [Compound 58, 3-(5-(4-((4-((R)-3-(4-amino-3-(4-phenoxyphenyl)-1H-pyrazolo[3,4-d]pyrimidin-1-yl)piperidine-1-carbonyl)piperazin-1-yl)methyl)piperidin-1-yl)-1-oxoisoindolin-2-yl)piperidine-2,6-dione] | < 1 | < 1
4 | > 90 | 0.01 to 0.05 | Nc1ncnc2c1c(-c1ccc(Oc3ccccc3)cc1)nn2[C@@H]1CCCN(C(=O)N2CCC(CC3CCN(c4ccc5c(c4)C(=O)N(C4CCC(=O)NC4=O)C5=O)CC3)CC2)C1 (stereo partly drawn) [Compound 59, 5-(4-((1-((R)-3-(4-amino-3-(4-phenoxyphenyl)-1H-pyrazolo[3,4-d]pyrimidin-1-yl)piperidine-1-carbonyl)piperidin-4-yl)methyl)piperidin-1-yl)-2-(2,6-dioxopiperidin-3-yl)isoindoline-1,3-dione] | < 1 | < 1
5 | > 90 | < 0.01 | Nc1ncnc2c1c(-c1ccc(Oc3ccccc3)cc1)nn2[C@@H]1CCCN(C(=O)N2CCC(CC3CCN(c4ccc5c(c4)CN(C4CCC(=O)NC4=O)C5=O)CC3)CC2)C1 (stereo partly drawn) [Compound 60, 3-(5-(4-((1-((R)-3-(4-amino-3-(4-phenoxyphenyl)-1H-pyrazolo[3,4-d]pyrimidin-1-yl)piperidine-1-carbonyl)piperidin-4-yl)methyl)piperidin-1-yl)-1-oxoisoindolin-2-yl)piperidine-2,6-dione] | < 1 | < 1
6 | > 90 | 0.01 to 0.05 | Nc1ncnc2c1c(-c1ccc(Oc3ccccc3)cc1)nn2[C@@H]1CCCN(C(=O)N2CCC(CN3CCC(c4ccc5c(c4)C(=O)N(C4CCC(=O)NC4=O)C5=O)CC3)CC2)C1 (stereo partly drawn) [Compound 61, 5-(1-((1-((R)-3-(4-amino-3-(4-phenoxyphenyl)-1H-pyrazolo[3,4-d]pyrimidin-1-yl)piperidine-1-carbonyl)piperidin-4-yl)methyl)piperidin-4-yl)-2-(2,6-dioxopiperidin-3-yl)isoindoline-1,3-dione] | < 1 | < 1
7 | > 90 | 0.01 to 0.05 | Nc1ncnc2c1c(-c1ccc(Oc3ccccc3)cc1)nn2[C@@H]1CCCN(C(=O)N2CCC(CN3CCC(c4ccc5c(c4)CN(C4CCC(=O)NC4=O)C5=O)CC3)CC2)C1 (stereo partly drawn) [Compound 62, 3-(5-(1-((1-((R)-3-(4-amino-3-(4-phenoxyphenyl)-1H-pyrazolo[3,4-d]pyrimidin-1-yl)piperidine-1-carbonyl)piperidin-4-yl)methyl)piperidin-4-yl)-1-oxoisoindolin-2-yl)piperidine-2,6-dione] | < 1 | < 1
8 | > 90 | < 0.01 | Nc1ncnc2c1c(-c1ccc(Oc3ccccc3)cc1)nn2[C@@H]1CCCN(C(=O)N2CCC(CCN3CCN(c4ccc5c(c4)CN(C4CCC(=O)NC4=O)C5=O)CC3)CC2)C1 (stereo partly drawn) [Compound 64, 3-(5-(4-(2-(1-((R)-3-(4-amino-3-(4-phenoxyphenyl)-1H-pyrazolo[3,4-d]pyrimidin-1-yl)piperidine-1-carbonyl)piperidin-4-yl)ethyl)piperazin-1-yl)-1-oxoisoindolin-2-yl)piperidine-2,6-dione] | < 1 | 1 to 10
9 | > 90 | < 0.01 | Nc1ncnc2c1c(-c1ccc(Oc3ccccc3)cc1)nn2[C@@H]1CCCN(C(=O)N2CCN(CCN3CCN(c4ccc5c(c4)C(=O)N(C4CCC(=O)NC4=O)C5=O)CC3)CC2)C1 (stereo partly drawn) [Compound 65, 5-(4-(2-(4-((R)-3-(4-amino-3-(4-phenoxyphenyl)-1H-pyrazolo[3,4-d]pyrimidin-1-yl)piperidine-1-carbonyl)piperazin-1-yl)ethyl)piperazin-1-yl)-2-(2,6-dioxopiperidin-3-yl)isoindoline-1,3-dione] | 1 to 10 | 1 to 10
10 | > 90 | < 0.01 | Nc1ncnc2c1c(-c1ccc(Oc3ccccc3)cc1)nn2[C@@H]1CCCN(C(=O)N2CCN(CCN3CCN(c4ccc5c(c4)CN(C4CCC(=O)NC4=O)C5=O)CC3)CC2)C1 (stereo partly drawn) [Compound 66, 3-(5-(4-(2-(4-((R)-3-(4-amino-3-(4-phenoxyphenyl)-1H-pyrazolo[3,4-d]pyrimidin-1-yl)piperidine-1-carbonyl)piperazin-1-yl)ethyl)piperazin-1-yl)-1-oxoisoindolin-2-yl)piperidine-2,6-dione] | 1 to 10 | < 1
11 | > 90 | < 0.01 | Nc1ncnc2c1c(-c1ccc(Oc3ccccc3)cc1)nn2[C@@H]1CCCN(C(=O)N2CCN(CCC3CCN(c4ccc5c(c4)C(=O)N(C4CCC(=O)NC4=O)C5=O)CC3)CC2)C1 (stereo partly drawn) [Compound 67, 5-(4-(2-(4-((R)-3-(4-amino-3-(4-phenoxyphenyl)-1H-pyrazolo[3,4-d]pyrimidin-1-yl)piperidine-1-carbonyl)piperazin-1-yl)ethyl)piperidin-1-yl)-2-(2,6-dioxopiperidin-3-yl)isoindoline-1,3-dione] | 1 to 10 | 1 to 10
12 | > 90 | < 0.01 | Nc1ncnc2c1c(-c1ccc(Oc3ccccc3)cc1)nn2[C@@H]1CCCN(C(=O)N2CCN(CCC3CCN(c4ccc5c(c4)CN(C4CCC(=O)NC4=O)C5=O)CC3)CC2)C1 (stereo partly drawn) [Compound 68, 3-(5-(4-(2-(4-((R)-3-(4-amino-3-(4-phenoxyphenyl)-1H-pyrazolo[3,4-d]pyrimidin-1-yl)piperidine-1-carbonyl)piperazin-1-yl)ethyl)piperidin-1-yl)-1-oxoisoindolin-2-yl)piperidine-2,6-dione] | 1 to 10 | 1 to 10
13 | > 90 | < 0.01 | Nc1ncnc2c1c(-c1ccc(Oc3ccccc3)cc1)nn2[C@@H]1CCCN(C(=O)N2CCN(CCN3CCC(c4ccc5c(c4)C(=O)N(C4CCC(=O)NC4=O)C5=O)CC3)CC2)C1 (stereo partly drawn) [Compound 69, 5-(1-(2-(4-((R)-3-(4-amino-3-(4-phenoxyphenyl)-1H-pyrazolo[3,4-d]pyrimidin-1-yl)piperidine-1-carbonyl)piperazin-1-yl)ethyl)piperidin-4-yl)-2-(2,6-dioxopiperidin-3-yl)isoindoline-1,3-dione] | 1 to 10 | 1 to 10
14 | > 90 | < 0.01 | Nc1ncnc2c1c(-c1ccc(Oc3ccccc3)cc1)nn2[C@@H]1CCCN(C(=O)N2CCN(CCN3CCC(c4ccc5c(c4)CN(C4CCC(=O)NC4=O)C5=O)CC3)CC2)C1 (stereo partly drawn) [Compound 70, 3-(5-(1-(2-(4-((R)-3-(4-amino-3-(4-phenoxyphenyl)-1H-pyrazolo[3,4-d]pyrimidin-1-yl)piperidine-1-carbonyl)piperazin-1-yl)ethyl)piperidin-4-yl)-1-oxoisoindolin-2-yl)piperidine-2,6-dione] | 1 to 10 | 1 to 10
15 | > 90 | < 0.01 | Nc1ncnc2c1c(-c1ccc(Oc3ccccc3)cc1)nn2[C@@H]1CCCN(C(=O)N2CCC(CCC3CCN(c4ccc5c(c4)C(=O)N(C4CCC(=O)NC4=O)C5=O)CC3)CC2)C1 (stereo partly drawn) [Compound 71, 5-(4-(2-(1-((R)-3-(4-amino-3-(4-phenoxyphenyl)-1H-pyrazolo[3,4-d]pyrimidin-1-yl)piperidine-1-carbonyl)piperidin-4-yl)ethyl)piperidin-1-yl)-2-(2,6-dioxopiperidin-3-yl)isoindoline-1,3-dione] | 1 to 10 | 1 to 10
16 | > 90 | < 0.01 | Nc1ncnc2c1c(-c1ccc(Oc3ccccc3)cc1)nn2[C@@H]1CCCN(C(=O)N2CCC(CCC3CCN(c4ccc5c(c4)CN(C4CCC(=O)NC4=O)C5=O)CC3)CC2)C1 (stereo partly drawn) [Compound 72, 3-(5-(4-(2-(1-((R)-3-(4-amino-3-(4-phenoxyphenyl)-1H-pyrazolo[3,4-d]pyrimidin-1-yl)piperidine-1-carbonyl)piperidin-4-yl)ethyl)piperidin-1-yl)-1-oxoisoindolin-2-yl)piperidine-2,6-dione] | 1 to 10 | 1 to 10
17 | > 90 | 0.01 to 0.05 | Nc1ncnc2c1c(-c1ccc(Oc3ccccc3)cc1)nn2[C@@H]1CCCN(C(=O)N2CCC(CCN3CCC(c4ccc5c(c4)C(=O)N(C4CCC(=O)NC4=O)C5=O)CC3)CC2)C1 (stereo partly drawn) [Compound 73, 5-(1-(2-(1-((R)-3-(4-amino-3-(4-phenoxyphenyl)-1H-pyrazolo[3,4-d]pyrimidin-1-yl)piperidine-1-carbonyl)piperidin-4-yl)ethyl)piperidin-4-yl)-2-(2,6-dioxopiperidin-3-yl)isoindoline-1,3-dione] | 1 to 10 | > 10
